The subject of one experiment is Hydroxyproline. Briefly: Serum and urine hydroxyproline levels in vivo. To be noted: Cf1 male mice, 8 mg/kg/day I.P. 14 days, N=6.
The subject of a further experiment is Phosphorus. Briefly: Serum and urine inorganic phosphorus levels in vivo. To be noted: Cf1 male mice, 8 mg/kg/day I.P. 14 days, N=6.
In another experiment the test system is Calcium. Briefly: Serum and urine calcium levels in vivo. To be noted: Cf1 male mice, 8 mg/kg/day I.P. 14 days, N=6.
In experiment [1] the target is Acid phosphatase. Briefly: Mouse hepatic lysosomal acid phosphatase activity. The class given is biochemical. To be noted: mouse hepatic, 60 min incubation. An excerpt:
(§1) 1. Cf1 male mouse hepatic 10% homogenates in 0.25M sucrose+0.001MEDTA,pH 7.2.
(§2) Lysosomal Enzymes - free and total [triton X-100].
(§3) 1. Acid phosphatase -beta glycerol-3-phosphate, pH 5.0, released IP 720 nm.
Acid phosphatase activity -

The target of experiment [2] is T1, Cathepsin D (Homo sapiens, UniProt P07339).
T1 construct: azocasein assay pH 5.0
T1 sequence (P07339 65-412): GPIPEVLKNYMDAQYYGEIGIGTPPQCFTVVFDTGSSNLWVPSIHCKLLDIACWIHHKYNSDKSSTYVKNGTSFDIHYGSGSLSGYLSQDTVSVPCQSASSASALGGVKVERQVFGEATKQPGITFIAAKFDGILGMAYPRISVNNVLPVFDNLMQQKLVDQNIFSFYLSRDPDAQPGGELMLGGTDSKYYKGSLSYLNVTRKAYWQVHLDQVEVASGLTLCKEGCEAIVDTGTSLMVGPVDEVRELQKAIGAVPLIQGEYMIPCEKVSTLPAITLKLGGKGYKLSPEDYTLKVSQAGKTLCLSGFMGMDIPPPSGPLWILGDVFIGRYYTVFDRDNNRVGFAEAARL
Briefly: Human osteoporosis fibroblasts cathepsin D (azo-casein) activity. Format: cell-based. To be noted: Table X; human osteoporosis fibroblasts, DMEM +10% FCS + P/S; read-out: Cathepsin D IC50.
Description: Osteoporosis Human Fibroblast-CRL-1140, Be SA1

Experiment [3] has as its target T2, Cathepsin D (Mus musculus, UniProt P18242).
T2 construct: azocasein assay pH 5.0
Briefly: Mouse hepatic lysosomal cathepsin D activity. The class given is biochemical. To be noted: mouse hepatic, 60 min incubation, read-out: Cathepsin D IC50.
Description: as §1, §2
(§4) 2. Acid Cathepsin D -azocasein-pH 5.0, hydrolytic azo-peptide produce 366 nm.
Cathepsin azo casein activity -

Experiment [4] has as its system Aryl sulphatase. Briefly: Human osteoporosis fibroblasts aryl sulphatase activity. To be noted: read-out: Aryl Sulphatase IC50; Table X; human osteoporosis fibroblasts. Format: cell-based. An excerpt: (§5) 3. Aryl sulphatase- p-nitrocatechol sulfate, pH
(§6) 5. 8 p-nitro-catechol product 510 nm.

The target of the next experiment is T3, Prostaglandin synthetase (Bos taurus, UniProt O62664).
T3 construct: Prostaglandin synthetase purified beef seminal vesicle; from tissue
T3 sequence (O62664 25-600): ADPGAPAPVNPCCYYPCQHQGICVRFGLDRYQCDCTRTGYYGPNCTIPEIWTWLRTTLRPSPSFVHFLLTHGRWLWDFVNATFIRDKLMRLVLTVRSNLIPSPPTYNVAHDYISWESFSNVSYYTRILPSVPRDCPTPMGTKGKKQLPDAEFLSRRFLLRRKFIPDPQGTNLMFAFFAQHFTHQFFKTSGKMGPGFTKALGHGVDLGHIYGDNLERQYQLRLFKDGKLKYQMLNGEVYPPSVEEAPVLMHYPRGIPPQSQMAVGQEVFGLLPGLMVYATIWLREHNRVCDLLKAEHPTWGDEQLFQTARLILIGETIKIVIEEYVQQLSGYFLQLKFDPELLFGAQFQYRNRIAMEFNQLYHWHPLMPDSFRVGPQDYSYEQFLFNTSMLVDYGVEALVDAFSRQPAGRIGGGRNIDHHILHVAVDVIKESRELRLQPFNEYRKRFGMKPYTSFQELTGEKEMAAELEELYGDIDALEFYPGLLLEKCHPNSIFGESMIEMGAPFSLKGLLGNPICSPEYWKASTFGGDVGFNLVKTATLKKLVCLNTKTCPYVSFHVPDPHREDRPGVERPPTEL
Briefly: Prostaglandin synthetase (cyclooxygenase), purified beef seminal vesicle. The class given is biochemical. The settings on record: Table IX; commercial enzyme preparation; read-out: Beef Prostaglandin Cyclooxygenase IC50. An excerpt:
(§7) Prostaglandin synthetase purified beef seminal vesicle ^3 H arachidonic acid (86.2 Ci/mmol), tlc separation.

Experiment [5] relates to Acid phosphatase. Briefly: Human osteoporosis fibroblasts acid phosphatase activity. Format: cell-based. To be noted: read-out: Acid Phosphatase IC50; Table X; human osteoporosis fibroblasts.
Description: as §3

Experiment [6] relates to Cf1 male mice. Briefly: Writhing reflex, 0.6% acetic acid. The class given is in vivo. To be noted: Mus musculus, ip; Table IV; 8 mg/kg I.P. For orientation: Writhing tests count abdominal constrictions after an irritant is injected.
Experiment [7] has as its target T2, Cathepsin D. Briefly: Mouse macrophage cathepsin D activity. To be noted: Table XVII; mouse macrophage, 60 min incubation; read-out: Cathepsin D pH 5.0 IC50. Format: cell-based.
Description: (§8) 3. Mouse macrophages J774A.1 BALB/c
as §4

Experiment [8] relates to Acid phosphatase. Briefly: Mouse macrophage acid phosphatase activity. To be noted: Table XVII; mouse macrophage, 60 min incubation; read-out: Acid Phosphatase IC50. The class given is cell-based.
For experiment [9], the system named is Cf1 male mice. Briefly: Writhing reflex, 0.6% acetic acid. Format: in vivo. The settings on record: Table XIV; unit inferred; unit assumed. The method, then:
Writhing reflex- Cf1 -male mice- 0.6% acetic acid I.P. drugs administered @20 mg/kg/ I.P. 20 min. later - the # of stretches/10 min.
Hendershot, L.C., et al, J.

For experiment [10], the system named is Cf1 male mice. Briefly: Anti-inflammatory screen, Winter's test, 2% carrageenan hind foot. To be noted: Table XIV; unit inferred; unit assumed. Format: in vivo. The method, then: Anti-inflammatory Screen- Cf1 - male mice-Winter's Test 2% carrageenan S.C. plantar surface of hind foot, drugs administered @8 or 10 mg/kg I.P. 2X
Winter, C.A., et al, Proc. Soc.

The subject of the next experiment is Elastase. Briefly: Mouse macrophage elastase activity. Format: cell-based. To be noted: Table XVIII; mouse macrophage, 60 min incubation; read-out: Elastase IC50.
For experiment [11], the system named is Aryl sulphatase. Briefly: Mouse macrophage aryl sulphatase activity. The class given is cell-based. The settings on record: Table XVII; mouse macrophage, 60 min incubation; read-out: Aryl Sulphatase IC50.
The subject of experiment [12] is Trypsin. Briefly: Mouse macrophage trypsin (BAEE) activity. Format: cell-based. To be noted: Table XVIII; mouse macrophage, 60 min incubation; read-out: Trypsin BAEE IC50.
The test system of experiment [13] is Cf1 male mice. Briefly: Hot plate tail flick test. Format: in vivo. To be noted: Table XIV; unit not given. On the technique in general: In hot-plate and tail-flick tests a longer latency is read as antinociception.
The next experiment deals with Commercial Collagenase. Briefly: Commercial collagenase (type not stated). Format: biochemical. The settings on record: Table XVI, 60 min incubation. An excerpt:
3. Collagenase I, Clostridium histolyticum, bone, skin, tendon, blood vessel, dentine, GI. substrate: rat collagen, N-[propionate-2-3-^3 H] propionylated measured as dpm released.
4. Collagenase II, Clostridium histolyticum, cartilage collagen.

The next experiment addresses T4, Pg. cyclooxygenase (Sus scrofa, UniProt A0A287ANF9).
T4 construct: Porcine Seminal; from tissue; the methods section prints beef seminal vesicle
Briefly: Porcine seminal vesicles Pg. cyclooxygenase. The class given is biochemical.

The test system of experiment [14] is Trypsin. Briefly: Mouse hepatic trypsin activity. The class given is biochemical. The settings on record: Table XVI; 60 min incubation; read-out: Mouse Hepatic Trypsin IC50.
Description: as §1
1. Trypsin- N-benzoyl-L-arginine ethyl ester pH 8.0, hydrolytic product 253 nm.

Experiment [15] deals with Prostaglandin cyclooxygenase. Briefly: Mouse macrophage prostaglandin cyclooxygenase activity. The class given is cell-based. To be noted: Table XVIII; mouse macrophage, 60 min incubation; read-out: Prostaglandin Cyclooxygenase IC50.
Description: as §8, §7

The target of experiment [16] is Aryl sulphatase. Briefly: Mouse hepatic lysosomal aryl sulphatase activity. The class given is biochemical. The settings on record: Table XV, 60 min incubation.
Description: as §1, §2, §5, §6

Structures can show the parent of a compound that is named as a salt. Where two headings read alike, the source gives them in different places.

T2 sequence (P18242 65-410): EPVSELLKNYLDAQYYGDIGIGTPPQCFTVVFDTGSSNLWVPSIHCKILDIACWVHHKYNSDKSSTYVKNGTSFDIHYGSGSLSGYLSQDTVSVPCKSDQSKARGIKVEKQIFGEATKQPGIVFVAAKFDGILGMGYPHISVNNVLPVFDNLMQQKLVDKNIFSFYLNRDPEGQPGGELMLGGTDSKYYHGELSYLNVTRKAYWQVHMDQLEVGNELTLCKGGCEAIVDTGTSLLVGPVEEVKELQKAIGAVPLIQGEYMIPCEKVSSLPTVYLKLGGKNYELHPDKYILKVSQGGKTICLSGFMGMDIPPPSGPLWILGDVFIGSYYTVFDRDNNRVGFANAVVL
T4 sequence (A0A287ANF9 25-600): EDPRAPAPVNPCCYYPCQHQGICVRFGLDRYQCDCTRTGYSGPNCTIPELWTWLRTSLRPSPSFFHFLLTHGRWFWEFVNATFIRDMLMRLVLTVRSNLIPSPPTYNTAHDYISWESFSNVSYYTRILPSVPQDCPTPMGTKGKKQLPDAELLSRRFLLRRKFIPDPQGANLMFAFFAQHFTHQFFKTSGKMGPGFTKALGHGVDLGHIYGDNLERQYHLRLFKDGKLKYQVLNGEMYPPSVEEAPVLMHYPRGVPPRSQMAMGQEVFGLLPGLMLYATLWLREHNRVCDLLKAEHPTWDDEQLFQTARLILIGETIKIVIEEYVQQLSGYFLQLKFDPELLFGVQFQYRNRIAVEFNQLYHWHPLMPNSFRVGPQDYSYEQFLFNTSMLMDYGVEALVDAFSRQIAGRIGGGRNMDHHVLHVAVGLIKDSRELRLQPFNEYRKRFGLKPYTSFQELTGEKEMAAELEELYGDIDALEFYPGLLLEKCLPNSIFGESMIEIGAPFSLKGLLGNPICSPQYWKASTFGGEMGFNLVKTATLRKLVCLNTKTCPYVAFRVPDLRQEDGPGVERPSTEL
Description for Elastase: Elastase- N-succinyl-L-alanyl-L-alanine-p-nitroanilide, pH 8.0, p-nitro anilide 410 nm.

Regarding `COC(=O)[BH2-][NH+](C)C` [(CH3)2 NHBH2 COOCH3, Dimethylamine-carbomethoxyborane], in the experiment on Hydroxyproline, the Hydroxyproline serum is 84.4 % Control and the Hydroxyproline urine was 50.5 % Control. In the experiment with Phosphorus, this molecule showed a Phosphorus serum of 42.8 % Control and a Phosphorus urine of 67.8 % Control. In the experiment with Calcium, the Calcium serum was determined as 125.4 % Control and the Calcium urine worked out at 80.7 % Control.

On to `CC[NH2+][BH2-]C(=O)O` [CH3 CH2 NH2 BH2 COOH], for which, in the experiment with Hydroxyproline, the Hydroxyproline serum is on record as 89.1 % Control and the Hydroxyproline urine turned out to be 69.2 % Control. In the experiment on Phosphorus, this molecule gave a Phosphorus serum of 64.3 % Control and a Phosphorus urine of 78.0 % Control. Further, in the experiment with Calcium, the Calcium serum was 121.0 % Control and the Calcium urine is reported as 61.2 % Control.

In the experiment on Hydroxyproline, `C[NH2+][BH2-]C(=O)OC` [CH3 NH2 BH2 COOCH3, Methylamine-carbomethoxyborane] showed a Hydroxyproline serum of 68.0 % Control and a Hydroxyproline urine of 144.1 % Control. In the experiment on Phosphorus, this molecule displayed a Phosphorus serum of 65.3 % Control and a Phosphorus urine of 136.8 % Control. In addition, in the experiment with Calcium, the Calcium serum came out at 105.1 % Control and the Calcium urine turned out to be 176.9 % Control.

In the experiment on Hydroxyproline, `O=C(O)[BH2-][P+](c1ccccc1)(c1ccccc1)c1ccccc1` [Compound 8, Triphenylphosphine-carboxyborane] came in with a Hydroxyproline serum of 60.5 % Control and a Hydroxyproline urine of 30.0 % Control. Further, the Calcium urine with Calcium came to 83.5 % Control.

Broadly, the IC50 is the midpoint of a concentration-inhibition curve. As to `O=C(O)[BH2-][n+]1ccccc1` [Compound 15, Pyridine-carboxyborane], the IC50 against Acid phosphatase [1] (Table V) is 10 µM; on Cathepsin D [2] it was 8.16 µM; at Cathepsin D [3] (Table V), 4.8 µM; in the experiment on Aryl sulphatase [4], 8.16 µM; at Prostaglandin synthetase, 7.6 µM; in the experiment on Acid phosphatase [5] it was 18.3 µM. The molecule further showed a response vs control in vivo at 8 mg/kg in the experiment with Cf1 male mice [6] of 50%.

On to `C[N+](C)(C)[BH2-]C(=O)O` [Compound 22, Trimethylamine-carboxyborane, sodium salt], for which the concentration for half-maximal inhibition (IC50) at Cathepsin D [7] was 1.92 µM; against Acid phosphatase [1] (Table XV) it was 3.56 µM; on Cathepsin D [3] (Table XV), 6.69 µM; with Acid phosphatase [8], 2 µM; in the experiment with Elastase it was 7.26 µM; in the experiment with Aryl sulphatase [11] it was 1.33 µM. Besides, the 50% inhibitory concentration (IC50) with Trypsin [12] was determined as 2.27 µM; on Commercial Collagenase (sodium salt), 490 µM; against Pg. cyclooxygenase, 2.4 µM; in the experiment with Trypsin [14] it was 9.98 µM; in [15], 2.41 µM; at Aryl sulphatase [16] it was 5.15 µM. The molecule also showed a Writhing Reflex Mice in the experiment on Cf1 male mice [9] of 76.5%. Moreover, in the experiment with Cf1 male mice [10], the Anti-Inflammation Cf1 Mice amounted to 73.4%. Moreover, the “Tail Flick Mice” value in the experiment with Cf1 male mice [13] worked out at 101.

`CC#N.CO.CO.CO.C[N+](C)(C)[BH2-]C(=O)[O-].C[N+](C)(C)[BH2-]C(=O)[O-].C[N+](C)(C)[BH2-]C(=O)[O-].C[N+](C)(C)[BH2-]C(=O)[O-].C[N+](C)(C)[BH2-]C(=O)[O-].C[N+](C)(C)[BH2-]C(=O)[O-].O=[N+]([O-])[O-].[Fe+3].[Fe+3].[Fe+3].[O-2]` [Compound 24]: the half-maximal inhibitory concentration (IC50) was found to be 2.85 µM on Cathepsin D [7]; 5.6 µM on Acid phosphatase [1] (Table XV); 6.84 µM at Cathepsin D [3] (Table XV); 2.09 µM at Acid phosphatase [8]; 3.92 µM at Elastase; 1.95 µM on Aryl sulphatase [11]. The IC50 with Trypsin [12] is 2.37 µM; against Commercial Collagenase it was 478 µM; against Pg. cyclooxygenase (Table XVI, 60 min incubation) it was 2.9 µM; in the experiment with Trypsin [14] it was 9.93 µM; in experiment [15], 2.34 µM; on Aryl sulphatase [16], 2.57 µM. In addition, the Writhing Reflex Mice in the experiment with Cf1 male mice [9] amounted to 42.9%. For the same molecule, in the experiment on Cf1 male mice [10], the Anti-Inflammation Cf1 Mice came to 81.6%. Further, the “Tail Flick Mice” value with Cf1 male mice [13] came out at 338.

`C[N+](C)(C)[BH2-]C(=O)[O-].C[N+](C)(C)[BH2-]C(=O)[O-].C[N+](C)(C)[BH2-]C(=O)[O-].C[N+](C)(C)[BH2-]C(=O)[O-].C[N+](C)(C)[BH2-]C(=O)[O-].C[N+](C)(C)[BH2-]C(=O)[O-].O.O.O.[Cl-].[Fe+3].[Fe+3].[Fe+3].[O-2]` [Compound 25]: the IC50 turned out to be 3.39 µM on Cathepsin D [7]; 4.14 µM at Acid phosphatase [1] (Table XV); 8.17 µM on Cathepsin D [3] (Table XV); 2.44 µM at Acid phosphatase [8]; 4.11 µM at Elastase; 2.75 µM at Aryl sulphatase [11]. Further, the IC50 with Trypsin [12] was found to be 1.81 µM; on Commercial Collagenase, 475 µM; against Pg. cyclooxygenase (Table XVI, 60 min incubation), 4.17 µM; in the experiment on Trypsin [14], 9.91 µM; in experiment [15], 2.08 µM; at Aryl sulphatase [16], 2.33 µM. In addition, in the experiment on Cf1 male mice [9], the Writhing Reflex Mice is 36.4%. This molecule showed an Anti-Inflammation Cf1 Mice with Cf1 male mice [10] of 74.2%. Also, the “Tail Flick Mice” value with Cf1 male mice [13] is given as 599.

For the origin of these results see US5312816A, “Method of combatting osteoporosis in mammalian subjects, utilizing organic boron compounds” (priority 1993, dated 1994).
